Consider 32 molecules from patent US10947213B1 (Merck Patent GmbH, priority 2015, dated 2021).

Structures can show the parent of a compound that is named as a salt. Some results are limits rather than exact numbers.

This experiment addresses T1, TLR7/NFKb HEK cells (Homo sapiens, UniProt Q9NYK1).
T1 construct: expressed in transfected cells; host or cells: HEK cells (TLR7/NFKb reporter line)
T1 sequence (Q9NYK1 27-1049): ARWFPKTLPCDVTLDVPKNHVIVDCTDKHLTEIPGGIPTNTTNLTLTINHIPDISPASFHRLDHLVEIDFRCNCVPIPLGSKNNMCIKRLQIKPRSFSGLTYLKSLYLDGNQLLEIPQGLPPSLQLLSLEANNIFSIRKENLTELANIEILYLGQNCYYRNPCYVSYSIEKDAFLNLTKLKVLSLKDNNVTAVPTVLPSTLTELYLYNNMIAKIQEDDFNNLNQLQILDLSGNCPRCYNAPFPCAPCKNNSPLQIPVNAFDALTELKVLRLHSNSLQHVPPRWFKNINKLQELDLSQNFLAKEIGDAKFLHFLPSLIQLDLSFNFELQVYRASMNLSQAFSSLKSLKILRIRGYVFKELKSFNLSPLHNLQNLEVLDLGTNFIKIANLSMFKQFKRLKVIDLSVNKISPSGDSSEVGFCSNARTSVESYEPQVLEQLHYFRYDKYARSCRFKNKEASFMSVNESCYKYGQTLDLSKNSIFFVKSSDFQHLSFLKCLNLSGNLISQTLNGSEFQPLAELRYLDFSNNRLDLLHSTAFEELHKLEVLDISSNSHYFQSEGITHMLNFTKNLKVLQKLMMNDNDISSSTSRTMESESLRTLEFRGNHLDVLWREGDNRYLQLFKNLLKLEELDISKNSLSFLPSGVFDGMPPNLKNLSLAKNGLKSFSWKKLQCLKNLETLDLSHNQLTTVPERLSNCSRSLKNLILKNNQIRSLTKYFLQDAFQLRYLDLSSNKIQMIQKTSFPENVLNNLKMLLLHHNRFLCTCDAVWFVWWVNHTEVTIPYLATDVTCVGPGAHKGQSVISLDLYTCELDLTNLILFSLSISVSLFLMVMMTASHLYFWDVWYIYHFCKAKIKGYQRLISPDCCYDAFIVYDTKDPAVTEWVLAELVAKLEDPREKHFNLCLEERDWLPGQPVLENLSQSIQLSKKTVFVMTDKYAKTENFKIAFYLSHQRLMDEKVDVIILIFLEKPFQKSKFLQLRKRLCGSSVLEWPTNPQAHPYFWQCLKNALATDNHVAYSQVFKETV
Nature of the experiment: HEK Cell Assay (TLR7/NFKb reporter, Steady-Glo luciferase readout). In kind it is cell-based. The note with it: 30 min compound preincubation, then R*48 agonist for 5 hours, read-out: Potency. In a few lines: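 Steady-Glo luminescence after 5 h stimulation with R*48 agonist, following 30 min compound preincubation. Assay run in HEK cells carrying a TLR7/NFKb luciferase reporter, plated at 5000 cells/well and grown 24 h at 37° C (10% CO2) before treatment.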
Take `N#Cc1ccc(N2CC(N)CC(F)(F)C2)c2cccnc12` (centres unmarked) [Compound 423, 5-(5-Amino-3,3-difluoro-piperidin-1-yl)-quinoline-8-carbonitrile hydrochloride]: the IC50 is less than 1 µM. On to `C[C@H]1C[C@@H](NC(=O)CC2CCN(CC(F)F)CC2)CN(c2ccc(C(F)(F)F)c3nccnc23)C1` [Compound 256, 2-[1-(2,2-difluoroethyl)piperidin-4-yl]-N-[(3R,5S)-5-methyl-1-[8-(trifluoromethyl)quinoxalin-5-yl]piperidin-3-yl]acetamide], for which the IC50 was less than 1 µM. In the case of `NC1CN(c2ccc(C(F)(F)F)c3ncccc23)CC(F)(F)C1` (single isomer, unassigned) [Compound 527], the IC50 was less than 1 µM.

`CC(C(=O)N[C@@H]1C[C@H](C)CN(c2ccc(C(F)(F)F)c3nccnc23)C1)N1CCC(O)CC1` (single isomer, unassigned) [Compound 372]: the IC50 is less than 1 µM.

On to `CN1CCN(C(=O)CCC(=O)N[C@H]2C[C@@H](C(F)(F)F)CN(c3ccc(C#N)c4ncccc34)C2)CC1` (racemic) [Compound 496, cis-N—[-1-(8-Cyano-quinolin-5-yl)-5-trifluoromethyl-piperidin-3-yl]-4-(4-methyl-piperazin-1-yl)-4-oxo-butyramide], for which the IC50 was less than 1 µM. For `C[C@H]1C[C@@H](NC(=O)CN2CC(O)C2)CN(c2ccc(C(F)(F)F)c3ncccc23)C1` [Compound 284], the IC50 was less than 1 µM. As for `C[C@H]1C[C@@H](NC(=O)C2CCCN2C)CN(c2ccc(C#N)c3nccnc23)C1` (stereo partly drawn) [Compound 171, N-[(3R,5S)-1-(8-cyanoquinoxalin-5-yl)-5-methylpiperidin-3-yl]-1-methylpyrrolidine-2-carboxamide], the IC50 is less than 1 µM.

Regarding `O=C(NCC1CCN(c2ccnc3nccnc23)CC1)c1ccccn1` [Compound 392, Pyridine-2-carboxylic acid (1-pyrido[2,3-b]pyrazin-8-yl-piperidin-4-ylmethyl)-amide], the IC50 was more than 10 µM. For `CN1CCC(CNC(=O)C2CN(c3ccc(C#N)c4ncccc34)CC(F)(F)C2)CC1` (single isomer, unassigned) [Compound 546], the IC50 was less than 1 µM. In the case of `OC1CCC(NC2CC(C(F)(F)F)CN(c3ccnc4nccnc34)C2)CC1` (single isomer, unassigned) [Compound 93, cis,cis-4-((1-(pyrido[2,3-b]pyrazin-8-yl)-5-(trifluoromethyl)piperidin-3-yl)amino)cyclohexanol], the IC50 is more than 10 µM. Turning to `N#Cc1ccc(N2CCC(C(=O)NCCN3CCCC3)CC2)c2cccnc12` [Compound 422, 1-(8-Cyano-quinolin-5-yl)-piperidine-4-carboxylic Acid (2-pyrrolidin-1-yl-ethyl)-amide], the IC50 is less than 1 µM. `CC(O)C(=O)N[C@@H]1C[C@H](C)CN(c2ccc(C(F)(F)F)c3nccnc23)C1` (stereo partly drawn) [Compound 292, 2-hydroxy-N-[(3R,5S)-5-methyl-1-[8-(trifluoromethyl)quinoxalin-5-yl]piperidin-3-yl]propanamide]: the IC50 is 1 to 10 µM. The result for `CC(C)[C@H](O)C(=O)NC1CC(C2CC2)CN(c2ccc(C#N)c3nccnc23)C1` (single isomer, unassigned) [Compound 173] reads 1 to 10 µM; that for `CC(C(=O)NC1CN(c2ccc(C#N)c3nccnc23)CC(F)(F)C1)N1CCC1` (single isomer, unassigned) [Compound 508], 1 to 10 µM.

For `CC(C)[C@@H](O)C(=O)N[C@@H]1C[C@H](C)CN(c2ccnc3nccnc23)C1` [Compound 23, (R)-2-hydroxy-3-methyl-N-((3R,5S)-5-methyl-1-(pyrido[2,3-b]pyrazin-8-yl)piperidin-3-yl)butanamide], the IC50 is more than 10 µM. Regarding `O=C(CN1CCOCC1)NC1CN(c2ccc(C(F)(F)F)c3ncccc23)CC(F)(F)C1` (centres unmarked) [Compound 512, N-[5,5-Difluoro-1-(8-trifluoromethyl-quinolin-5-yl)-piperidin-3-yl]-2-morpholin-4-yl-acetamide], the IC50 lay within 1 to 10 µM. With `CC(C)[C@H](O)C(=O)N[C@@H]1C[C@H](C)CN(c2ccnc3nccnc23)C1` [Compound 22, (S)-2-hydroxy-3-methyl-N-((3R,5S)-5-methyl-1-(pyrido[2,3-b]pyrazin-8-yl)piperidin-3-yl)butanamide], the IC50 lay in the range of 1 to 10 µM. For the molecule `CCC(C)C(=O)N[C@@H]1C[C@H](C)CN(c2ccc(C#N)c3nccnc23)C1` (single isomer, unassigned) [Compound 155], the IC50 was in the range of 1 to 10 µM. Consider `CCN(CC)CCNCC1CCN(c2ccnc3ccc(C)cc23)CC1` [Compound 384, N,N-Diethyl-N′-[1-(6-methyl-quinolin-4-yl)-piperidin-4-ylmethyl]-ethane-1,2-diamine], for which the IC50 lay in the range of 1 to 10 µM. Turning to `CN(C)CC(=O)NC1CN(c2ccc(C#N)c3ncccc23)CC(F)(F)C1` (single isomer, unassigned) [Compound 449], the IC50 was less than 1 µM. Consider `COc1ccc(N2C[C@@H](C)C[C@@H](NC(=O)C(N)C(F)(F)F)C2)c2cccnc12` (single isomer, unassigned) [Compound 191], for which the IC50 lay within 1 to 10 µM. The result for `C[C@H]1C[C@@H](NC(=O)CNC(C)(C)C)CN(c2ccc(C#N)c3nccnc23)C1` [Compound 142, 2-(tert-butylamino)-N-[(3R,5S)-1-(8-cyanoquinoxalin-5-yl)-5-methylpiperidin-3-yl]acetamide] reads less than 1 µM; that for `C[C@H]1C[C@@H](NC(=O)CC2CC2(F)F)CN(c2ccc(C(F)F)c3nccnc23)C1` (stereo partly drawn) [Compound 322, 2-(2,2-difluorocyclopropyl)-N-[(3R,5S)-1-[8-(difluoromethyl)quinoxalin-5-yl]-5-methylpiperidin-3-yl]acetamide], 1 to 10 µM; that for `Cc1ncc(N2C[C@@H](C)C[C@@H](NC(=O)[C@H](N)C3CC3)C2)c2cccnc12` [Compound 561, (R)-2-Amino-2-cyclopropyl-N-[(3R,5S)-5-methyl-1-(8-methyl-[1,7]naphthyridin-5-yl)-piperidin-3-yl]-acetamide], less than 1 µM. `COCCN[C@@H]1C[C@H](C2CC2)CN(c2ccc(C#N)c3nccnc23)C1` (relative stereo) [Compound 176, cis-8-[3-cyclopropyl-5-[(2-methoxyethyl)amino]piperidin-1-yl]quinoxaline-5-carbonitrile]: the IC50 fell in the range of 1 to 10 µM.

`NC1CN(c2ccc(C(F)(F)F)c3ncccc23)CC(F)(F)C1` (single isomer, unassigned) [Compound 528]: the IC50 lay in the range of 1 to 10 µM. The result for `COc1ccc(N2C[C@@H](C)C[C@@H](NC(=O)C(O)C(C)C)C2)c2nccnc12` (stereo in doubt) [Compound 201, (2R)-2-hydroxy-N-[(3R,5S)-1-(8-methoxyquinoxalin-5-yl)-5 methylpiperidin-3-yl]-3-methylbutanamide] reads 1 to 10 µM; that for `C[C@H]1C[C@@H](NC(=O)[C@@H](N)Cc2cccnc2)CN(c2ccc(C#N)c3nccnc23)C1` [Compound 116, (2S)-2-amino-N-[(3R,5S)-1-(8-cyanoquinoxalin-5-yl)-5-methylpiperidin-3-yl]-3-(pyridin-3-yl)propanamide], less than 1 µM; that for `CC(C)[C@H](N)C(=O)N[C@@H]1C[C@H](C)CN(c2ccc(C#N)c3nccnc23)C1` [Compound 103, (2S)-2-amino-N-[(3R,5S)-1-(8-cyanoquinoxalin-5-yl)-5-methylpiperidin-3-yl]-3-methylbutanamide], less than 1 µM. The same measure for `CC(C(=O)NC1CN(c2ccc(C#N)c3nccnc23)CC(F)(F)C1)N1CCOCC1` (centres unmarked) [Compound 509, N-[1-(8-Cyano-quinoxalin-5-yl)-5,5-difluoro-piperidin-3-yl]-2-morpholin-4-yl-propionamide]: more than 10 µM. The same measure for `CC(C)(C)CC(=O)N[C@H]1C[C@@H](C(F)(F)F)CN(c2ccc(C#N)c3ncccc23)C1` (relative stereo) [Compound 431, cis-N-[1-(8-Cyano-quinolin-5-yl)-5-trifluoromethyl-piperidin-3-yl]-3,3-dimethyl-butyramide]: less than 1 µM. `CC(C)[C@@H](N)C(=O)N[C@@H]1C[C@H](C)CN(c2ccnc3nccnc23)C1` [Compound 104, (2R)-2-amino-3-methyl-N-[(3R,5S)-5-methyl-1-[pyrido[2,3-b]pyrazin-8-yl]piperidin-3-yl]butanamide]: the IC50 was more than 10 µM.
